In patent US5260451A, “Substituted pyrrole compounds and use thereof in pharmaceutical compositions” (priority 1989, dated 1993) one finds inhibition data, which are given here for 23 compounds.

The target in one assay is T1, 5-lipoxygenase (Bos taurus, UniProt F1MQ78).
T1 construct: The source for 5-lipoxygenase were bovine granulocytes; endogenous in cells; host or cells: granulocytes isolated from EDTA-anticoagulated bovine blood
T1 sequence (F1MQ78 1-674): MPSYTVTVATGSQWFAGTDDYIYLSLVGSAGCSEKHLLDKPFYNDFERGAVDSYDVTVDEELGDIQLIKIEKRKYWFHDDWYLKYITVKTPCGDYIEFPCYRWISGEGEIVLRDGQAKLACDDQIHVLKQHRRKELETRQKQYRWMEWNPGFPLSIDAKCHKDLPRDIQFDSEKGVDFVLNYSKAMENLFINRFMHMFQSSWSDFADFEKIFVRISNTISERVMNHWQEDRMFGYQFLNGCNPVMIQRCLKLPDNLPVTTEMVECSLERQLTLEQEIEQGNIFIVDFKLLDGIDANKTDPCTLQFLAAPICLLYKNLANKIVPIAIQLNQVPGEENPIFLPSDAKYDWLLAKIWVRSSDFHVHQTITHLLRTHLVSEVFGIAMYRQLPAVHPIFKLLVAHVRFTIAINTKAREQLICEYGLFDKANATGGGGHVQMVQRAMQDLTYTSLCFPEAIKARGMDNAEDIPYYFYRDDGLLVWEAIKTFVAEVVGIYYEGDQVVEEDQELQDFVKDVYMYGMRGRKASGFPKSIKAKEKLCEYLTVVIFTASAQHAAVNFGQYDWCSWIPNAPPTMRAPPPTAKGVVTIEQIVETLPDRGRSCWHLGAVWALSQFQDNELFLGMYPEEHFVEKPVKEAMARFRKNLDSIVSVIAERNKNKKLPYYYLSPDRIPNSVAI
Briefly: inhibition of 5-lipoxygenase (LTB4 formed by calcium-ionophore stimulated bovine granulocytes). In kind it is cell-based. Conditions: Table 1. The protocol: The effectiveness of the compounds of the invention can be determined by means of the inhibition of 5-lipoxygenase or of cyclo-oxygenase. The research was carried out as follows: The source for 5-lipoxygenase were bovine granulocytes which can form leucotrienes just as human granulocytes do. By stimulation with calcium-ionophore (see BIOCHEM. BIOPHYS. ACTA 1984, 795, pp 499-503), mainly LTC4 (leucotriene C4) and LTB4 (leucotriene B4) are formed from endogenous arachidonic acid. The isolation of the granulocytes and the implementation of the enzyme reaction are conventional (see BIOCHEM. BIOPHYS. ACTA 1984, 795 pp 499-503). The blood protected against clotting by EDTA first is centrifuged for that purposed and the thrombotic excess is removed. Following lysis of the erythrocytes with water the lymphocytes and monocytes are separated from the granulocytes by means of a Ficoll gradient. The granulocytes are set to a specific cell number. The enzyme reaction is then begun in the presence or absence of the test substances following the addition of Ca^2+ with calcium ionophore. The synthesis of the leucotrienes is stopped after 5 minutes by adding a mixture of methanol and acetonitrile containing PGB2 as the internal standard and NDGA as the anti-oxidant. Next the samples are diluted in water and processed in the manner described in J. CHROMATOGR. […], 378, pp 208-214. LTB4 is measured at the absorption maximum at 270 nm. The arachidonic acid metabolites are observed present in this research in approximately quantitative manner. Tables 1 and 2 list the test results for the compounds of the invention, The test substances were at concentrations of 10 μM.
Take `O=C(O)CCc1c(-c2cccc(Cl)c2)c(-c2ccccc2)c2n1CCC2`: the inhibition at 10 µM was found to be 89%. Turning to `O=C(O)CCc1c(-c2ccc(Cl)cc2)c(-c2ccccc2)c2n1CCC2`, the inhibition at 10 µM was determined as 98%. Turning to `COc1ccc(-c2c(-c3ccccc3)c3n(c2CCC(=O)O)CCC3)cc1`, the inhibition at 10 µM was found to be 91%. Turning to `O=C(O)CCc1c(-c2ccc(Oc3ccccc3)cc2)c(-c2ccccc2)c2n1CCC2`, the inhibition at 10 µM turned out to be 98%. For `CC1(C)Cc2c(CCC(=O)O)c(-c3ccccc3)c(-c3ccccc3)n2C1` [(CH2)2 CO2 H, Phenyl, Phenyl, CH3, CH3], the inhibition at 10 µM was 93%.

Consider `O=C(O)CCCCc1c(-c2ccccc2)c(-c2ccccc2)n2c1CCC2` [(CH2)4 CO2 H, Phenyl, Phenyl, H, H], for which the inhibition at 10 µM stood at 86%. Turning to `CC1(C)Cc2c(CCCCCC(=O)O)c(-c3ccccc3)c(-c3ccccc3)n2C1` [(CH2)5 CO2 H, Phenyl, Phenyl, CH3, CH3], the inhibition at 10 µM turned out to be 96%. In the case of `O=C(O)CCCCCc1c(-c2ccccc2)c(-c2ccccc2)n2c1CCC2` [(CH2)5 CO2 H, Phenyl, Phenyl, H, H], the inhibition at 10 µM turned out to be 86%. On the same count and under the same terms, as for `CC1(C)Cc2c(C=CC(=O)O)c(-c3ccccc3)c(-c3ccccc3)n2C1` [CHCHCO2 H, Phenyl, Phenyl, CH3, CH3], the figure is 91%; as for `O=C(O)CCCCc1c(-c2ccccc2)c2n(c1-c1ccccc1)CCC2` [Phenyl, (CH2)4 CO2 H, Phenyl, H, H], 82%; as for `O=C(O)CCCCCc1c(-c2ccccc2)c2n(c1-c1ccccc1)CCC2` [Phenyl, (CH2)5 CO2 H, Phenyl, H, H], 80%. Still for that read-out and setting: as for `CCCCCCc1c(-c2ccccc2)c2n(c1C=CC(=O)O)CCC2` [Phenyl, C6 H13, CHCHCO2 H, H, H, 3-(6-(n-HEXYL)-7-PHENYL-2,3-DIHYDRO-1h-PYRROLIZINE-5-YL)-ACRYLIC ACID], the figure is 82%; as for `CC1(C)Cc2c(-c3ccccc3)c(-c3ccccc3)c(CCC(=O)O)n2C1` [Phenyl, Phenyl, (CH2)2 CO2 H, CH3, CH3], 91%; as for `CC1(C)Cc2c(-c3ccccc3)c(-c3ccccc3)c(CC(=O)O)n2C1` [Phenyl, Phenyl, CH2 CO2 H, CH3, CH3, (2,2-dimethyl-6,7-diphenyl-2,3-dihydro-1H-pyrrolizine-5-yl)-acetic acid], 94%. On the same count and under the same terms, as for `O=C(O)/C=C/c1c(-c2ccccc2)c(-c2ccccc2)c2n1CCC2` [Phenyl, Phenyl, CHCHCO2 H, H, H], the figure is 80%; as for `Cc1ccc(-c2c(-c3ccccc3)c3n(c2CCC(=O)O)CCC3)cc1` [Phenyl, p-Tolyl, (CH2)2 CO2 H, H, H], 92%; as for `O=C(O)CCc1c(-c2cccc3ccccc23)c(-c2ccccc2)c2n1CCC2` [Phenyl, α-naphthyl, (CH2)2 CO2 H, H, H], 94%.

Staying with this assay, now noted: Table 2.
On to `Cc1c(-c2ccccc2)c(-c2ccccc2)c(CCC(=O)O)n1CC(C)(C)C`, for which the inhibition at 10 µM came to 97%.

Take `CCCCn1c(C)c(-c2ccccc2)c(-c2ccccc2)c1CCC(=O)O`: the inhibition at 10 µM is 94%. As to `CCCCCn1c(C)c(-c2ccccc2)c(-c2ccccc2)c1CCC(=O)O`, the inhibition at 10 µM is 99%. The same measure, in the same setting: as for `CCCCCCn1c(C)c(-c2ccccc2)c(-c2ccccc2)c1CCC(=O)O`, the figure is 99%.

A further assay deals with T2, cyclo-oxygenase (Bos taurus, UniProt O62664).
T2 construct: formed by bovine thrombocytes following addition of calcium ionophore; endogenous in cells; host or cells: thrombocytes isolated from the supernatant of centrifuged bovine blood
T2 sequence (O62664 25-600): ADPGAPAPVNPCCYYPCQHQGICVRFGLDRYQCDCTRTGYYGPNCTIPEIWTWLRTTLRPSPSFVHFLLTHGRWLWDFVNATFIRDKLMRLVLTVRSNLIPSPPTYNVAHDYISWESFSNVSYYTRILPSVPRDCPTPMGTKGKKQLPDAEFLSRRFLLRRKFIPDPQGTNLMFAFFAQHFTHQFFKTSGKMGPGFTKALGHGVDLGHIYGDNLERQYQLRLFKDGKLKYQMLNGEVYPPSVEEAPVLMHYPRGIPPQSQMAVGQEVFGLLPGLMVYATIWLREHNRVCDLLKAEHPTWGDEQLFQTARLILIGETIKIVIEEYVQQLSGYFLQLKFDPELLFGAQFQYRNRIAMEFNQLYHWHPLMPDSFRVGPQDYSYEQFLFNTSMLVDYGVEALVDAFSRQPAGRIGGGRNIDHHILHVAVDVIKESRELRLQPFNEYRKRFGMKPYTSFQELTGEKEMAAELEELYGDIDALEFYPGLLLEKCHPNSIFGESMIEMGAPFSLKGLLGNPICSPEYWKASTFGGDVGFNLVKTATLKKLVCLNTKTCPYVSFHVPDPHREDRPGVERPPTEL
As to the kind of experiment: inhibition of cyclo-oxygenase (12-HHT or prostaglandin E2 formed by calcium-ionophore stimulated bovine thrombocytes). In kind it is cell-based. Conditions: Table 1, read-out: INHIBITION % Cyclooxygenase. As to the method:
The effectiveness of the compounds of the invention can be determined by means of the inhibition of 5-lipoxygenase or of cyclo-oxygenase. The research was carried out as follows:
In this test the 12-HHT amount of 12-hydroxyheptadecatriene acid or prostaglandin E2 amount formed by bovine thrombocytes following addition of calcium ionophore is determined by uv detection following HPLC separation. Following centrifuging of the bovine blood, the thrombocytes are isolated from the surnatant. The enzyme reaction and the isolation of the formed metabolites take place as when determining the 5-lipoxygenase inhibition, however the incubation time was one minute. The detection of 12 HHT following HPLC separation takes place at 232 nm.
Tables 1 and 2 list the test results for the compounds of the invention, The test substances were at concentrations of 10 μM.
As to `O=C(O)CCc1c(-c2ccc(Oc3ccccc3)cc2)c(-c2ccccc2)c2n1CCC2`, the inhibition at 10 µM amounted to 70%. Still for that read-out and setting: as for `CC1(C)Cc2c(-c3ccccc3)c(-c3ccccc3)c(CCC(=O)O)n2C1` [Phenyl, Phenyl, (CH2)2 CO2 H, CH3, CH3], the figure is 97%. Still for that read-out and setting: as for `CC1(C)Cc2c(-c3ccccc3)c(-c3ccccc3)c(CC(=O)O)n2C1` [Phenyl, Phenyl, CH2 CO2 H, CH3, CH3, (2,2-dimethyl-6,7-diphenyl-2,3-dihydro-1H-pyrrolizine-5-yl)-acetic acid], the figure is 99%; as for `O=C(O)Cc1c(-c2ccccc2)c(-c2ccccc2)c2n1CCC2` [Phenyl, Phenyl, CH2 CO2 H, H, H], 91%.

The target in a further assay is T1, 5-lipoxygenase. As to the kind of experiment: inhibition of 5-lipoxygenase (LTB4 formed by calcium-ionophore stimulated bovine granulocytes). In kind it is cell-based. Particulars: Table 1, 3,3 μM.
Turning to `CC1(C)Cc2c(-c3ccccc3)c(-c3ccc(Oc4ccccc4)cc3)c(CCC(=O)O)n2C1` [3-(2,2-dimethyl-6-(4-phenoxyphenyl)-7-phenyl-2,3-dihydro-1H-pyrrolizine-5-yl) propionic acid], the inhibition at 3 µM amounted to 98%.

Broadly, the inhibition is the percentage by which the read-out fell short of the control.
